Results as given in patent US8778923B2, “GLP-1 receptor modulators” (Receptos, Inc., priority 2011, dated 2014).

Target: T1, GLP-1R (Homo sapiens, UniProt P43220)
T1 construct: host or cells: CRE-bla CHO-K1
Assay: EC20 GLP-1(9-36) PAM cAMP assay: dose response of compound in the presence of fixed concentration of GLP-1(9-36)
Type: cell-based
Details: GLP-1R CRE-bla CHO-K1 cells, compound dose response in presence of fixed concentration of GLP-1(9-36)
Protocol: EC20 GLP-1(9-36) PAM cAMP Assay: Dose Response of Compound in the Presence of Fixed Concentration of GLP-1 (9-36).
GLP-1R CRE-bla CHO-K1 cells cultured in growth medium (DMEM-High glucose, 10% dialyzed FBS, 0.1 mM NEAA, 25 mM Hepes, 100 U/mL penicillin/100 μg/mL streptomycin, 5 μg/mL Blasticidin, 600 μg/mL Hygromycin) were tryspsinized and plated in suspension into 384 well white flat bottom plates at 5000 cells/well in 12 μL assay buffer (Hanks Balanced Salt solution, 10 mM Hepes, 0.1% BSA, pH 7.4). A 5× compound dose response curve (12-point) was generated in assay buffer containing 1.5 mM IBMX, 12.5% DMSO. GLP-1(9-36) was diluted to 4.2 μM in assay buffer containing 1.5 mM IBMX and 12.5% DMSO. The 5× compound dose response was added (3 μL), followed by 0.5 μL of GLP-1(9-36) and cells were incubated for 30 min at 37° C. Direct detection of cAMP was carried out using DiscoveRx HitHunter cAMP kit according to manufacturer's instructions and luminescence was read using a SpectraMax M5 plate reader. Luminescence was converted to total cAMP using a cAMP standard curve and data was analyzed by non-linear regression to determine the EC50 and Emax.
GLP-1(7-36): […]-NH2. GLP-1(9-36): […]-NH2. GLP-1(7-36) was purchased from GenScript. GLP-1(9-36) was purchased from Biopeptide Co., Inc.

T1 sequence (P43220 24-463): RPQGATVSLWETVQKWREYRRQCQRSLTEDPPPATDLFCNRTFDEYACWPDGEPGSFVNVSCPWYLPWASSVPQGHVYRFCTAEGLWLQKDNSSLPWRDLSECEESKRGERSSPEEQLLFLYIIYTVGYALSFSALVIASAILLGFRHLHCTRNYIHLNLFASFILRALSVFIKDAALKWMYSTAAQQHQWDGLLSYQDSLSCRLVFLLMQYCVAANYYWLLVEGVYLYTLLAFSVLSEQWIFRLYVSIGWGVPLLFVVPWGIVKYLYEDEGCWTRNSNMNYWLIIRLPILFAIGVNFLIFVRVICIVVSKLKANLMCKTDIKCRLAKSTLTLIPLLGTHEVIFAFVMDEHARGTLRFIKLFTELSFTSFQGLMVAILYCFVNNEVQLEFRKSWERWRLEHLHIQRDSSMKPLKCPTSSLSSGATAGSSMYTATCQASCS
T1 sequence (P01275 100-127 partner limits assumed): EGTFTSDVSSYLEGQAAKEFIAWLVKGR

Row | SMILES | EC50
1 | CC(=O)Nc1ccc(-c2nc(-c3ccc(C[C@H](NC(=O)c4ccc(C(C)(C)C)cc4)C(=O)O)cc3)no2)cc1 [Compound 44] | 2500 to 5000 nM
2 | CCCCOc1ccc(-c2cnc(-c3ccc(C[C@H](NC(=O)c4ccc(C(C)(C)C)cc4)C(=O)O)cc3)nc2)cc1 [Compound 223] | 800 to 2500 nM
3 | CCCCCCCOc1ccc(-c2cnc(-c3ccc(C[C@@H](NC(=O)c4ccc(C(C)(C)C)s4)C(=O)O)cc3)nc2)cc1 [Compound 193] | 800 to 2500 nM
4 | CC(C)(C)c1ccc(-c2cnc(-c3ccc(C[C@H](NC(=O)c4ccc(S(C)(=O)=O)cc4)C(=O)O)cc3)nc2)cc1 [Compound 159] | 800 to 2500 nM
5 | CC(C)(C)c1ccc(C(=O)N[C@@H](Cc2ccc(-c3noc(-c4ccc(-c5ccccc5F)cc4)n3)cc2)C(=O)O)cc1 [Compound 19] | 800 to 2500 nM
6 | CC(C)(C)Cc1ccc(C(=O)N[C@@H](Cc2ccc(-c3ncc(-c4ccc(C(C)(C)C)cc4)cn3)cc2)C(=O)O)cc1 [Compound 172] | 800 to 2500 nM
7 | CC(C)(C)c1ccc(-c2cnc(-c3ccc(C[C@H](NC(=O)c4ccc(C(C)(C)C)s4)C(=O)N[C@@H](CCC(N)=O)C(=O)O)cc3)nc2)cc1 [Compound 360] | 800 to 2500 nM
8 | CC(C)(C)c1ccc(-c2cnc(-c3ccc(C[C@H](NC(=O)c4ccc(C(C)(C)C)s4)C(=O)O)cc3)nc2)cc1 [Compound 165] | 800 to 2500 nM
9 | CC(C)(C)c1ccc(-c2cnc(-c3ccc(C[C@@H](NC(=O)c4ccc(C(C)(C)C)s4)C(=O)O)cc3)nc2)cc1 [Compound 182] | 800 to 2500 nM
10 | CCCCCOc1ccc(-c2cnc(-c3ccc(C[C@H](NC(=O)c4ccc(C(C)(C)C)cc4)C(=O)O)cc3)nc2)cc1 [Compound 224] | 800 to 2500 nM
11 | C[C@H](NC(=O)[C@H](Cc1ccc(-c2ncc(-c3ccc(C(C)(C)C)cc3)cn2)cc1)NC(=O)c1ccc(C(C)(C)C)s1)C(=O)O [Compound 364] | 800 to 2500 nM
12 | CCCCCCCOc1ccc(-c2cnc(-c3ccc(CC(NC(=O)c4ccc(C(C)(C)C)cc4)C(=O)O)cc3)s2)cc1 (centres unmarked) [Compound 81] | 5000 to 10000 nM
13 | CCCCCCCOc1ccc(-c2cnc(-c3ccc(C[C@H](NC(=O)c4ccc(C(C)(C)C)s4)C(=O)NCCC(=O)O)cc3)nc2)cc1 [Compound 336] | < 800 nM
14 | CC(C)c1cc(C(=O)N[C@@H](Cc2ccc(-c3ncc(-c4ccc(C(C)(C)C)cc4)cn3)cc2)C(=O)O)cs1 [Compound 179] | 5000 to 10000 nM
15 | CCCCCCCOc1ccc(-c2cnc(-c3ccc(C[C@H](NC(=O)c4ccc(NCCCC)cc4)C(=O)O)cc3)nc2)cc1 [Compound 124] | 800 to 2500 nM
16 | CC(C)(C)c1ccc(C(=O)N[C@@H](Cc2ccc(-c3noc(-c4ccc(N5CCCCC5)nc4)n3)cc2)C(=O)O)cc1 [Compound 32] | 5000 to 10000 nM
17 | CCCCCCCOc1ccc(-c2nnc(-c3ccc(C[C@H](NC(=O)c4ccc(C(C)(C)C)cc4)C(=O)O)cc3)s2)cc1 [Compound 83] | 800 to 2500 nM
18 | CC(C)(C)c1ccc(C(=O)N[C@@H](Cc2ccc(-c3ncc(-c4ccc(C(C)(C)C)cc4)cn3)cc2)C(=O)O)cc1 [Compound 199] | 800 to 2500 nM
19 | Cn1ccc2c(-c3nc(-c4ccc(C[C@H](NC(=O)c5ccc(C(C)(C)C)cc5)C(=O)O)cc4)no3)cccc21 [Compound 49] | 5000 to 10000 nM
20 | CC(C)(C)c1ccc(C(=O)N[C@@H](Cc2ccc(-c3ncc(-c4cccc(Cl)c4)cn3)cc2)C(=O)O)cc1 [Compound 212] | 5000 to 10000 nM
21 | Cc1ccc(-c2nc(-c3ccc(C[C@H](NC(=O)c4ccc(C(C)(C)C)cc4)C(=O)O)cc3)no2)cc1 [Compound 7] | 5000 to 10000 nM
22 | CCCCCCCOc1ccc(-c2cnc(-c3ccc(C[C@H](NC(=O)c4ccc(C(C)C)cc4)C(=O)N[C@@H](CC(=O)O)C(=O)O)cc3)nc2)cc1 [Compound 307] | 800 to 2500 nM

Row | SMILES | EC50
23 | CC(C)(C)c1ccc(C(=O)N[C@@H](Cc2ccc(-c3noc(-c4ccc(N)cc4)n3)cc2)C(=O)O)cc1 [Compound 62] | 2500 to 5000 nM
24 | CCCCCCCOc1ccc(-c2cnc(-c3ccc(C[C@H](NC(=O)c4ccc(CC(C)C)s4)C(=O)O)cc3)nc2)cc1 [Compound 153] | 800 to 2500 nM
25 | CC(C)(C)c1ccc(-c2cnc(-c3ccc(C[C@H](NC(=O)c4ccc(C(C)(C)C)s4)C(=O)N[C@H](CC(=O)O)C(=O)O)cc3)nc2)cc1 [Compound 355] | 800 to 2500 nM
26 | CCCCCCCOc1ccc(-c2cnc(-c3ccc(C[C@H](NC(=O)c4ccc(C(C)(C)C)s4)C(=O)N[C@H](CC(=O)O)C(=O)O)cc3)nc2)cc1 [Compound 324] | 800 to 2500 nM
27 | CCCCCCCOc1ccc(-c2ncc(-c3ccc(C[C@H](NC(=O)c4ccc(C(C)(C)C)cc4)C(=O)O)cc3)cn2)cc1 [Compound 271] | 800 to 2500 nM
28 | CCCCCCCOc1ccc(-c2cnc(-c3ccc(C[C@H](NC(=O)c4ccc(S(=O)(=O)C(C)C)cc4)C(=O)O)cc3)nc2)cc1 [Compound 122] | 800 to 2500 nM
29 | CC(C)(C)c1ccc(C(=O)N[C@@H](Cc2ccc(-c3ncc(-c4ccc5ccccc5c4)cn3)cc2)C(=O)O)cc1 [Compound 226] | 800 to 2500 nM
30 | CC(C)(C)c1ccc(C(=O)N[C@@H](Cc2ccc(-c3noc(-c4ccc(-c5cccc(Cl)c5)cc4)n3)cc2)C(=O)O)cc1 [Compound 17] | 2500 to 5000 nM
31 | CC(C)(C)c1ccc(C(=O)N[C@@H](Cc2ccc(-c3noc(-c4ccc(-c5ccc(C#N)cc5)cc4)n3)cc2)C(=O)O)cc1 [Compound 29] | 800 to 2500 nM
32 | CCCCCOc1ccc(-c2cnc(-c3ccc(C[C@H](NC(=O)c4ccc(C(C)(C)C)s4)C(=O)O)cc3)nc2)cc1 [Compound 238] | 800 to 2500 nM
33 | CCCCCCCOc1ccc(-c2cnc(-c3ccc(C[C@H](NC(=O)c4ccc(C(C)C)cc4)C(=O)N[C@@H](Cc4cnc[nH]4)C(=O)O)cc3)nc2)cc1 [Compound 311] | 800 to 2500 nM
34 | CCCc1ccc(-c2cnc(-c3ccc(C[C@H](NC(=O)c4ccc(C(C)(C)C)cc4)C(=O)O)cc3)nc2)cc1 [Compound 228] | 800 to 2500 nM
35 | CCCCCCCOc1ccc(-c2ccc(-c3ccc(C[C@H](NC(=O)c4ccc(C(C)(C)C)s4)C(=O)NCC(=O)O)cc3)nn2)cc1 [Compound 283] | 5000 to 10000 nM
36 | CCCCCCCOc1ccc(-c2cnc(-c3ccc(C[C@H](NC(=O)c4ccc(C(C)(C)C)s4)C(=O)N4CC[C@@H](C(=O)O)C4)cc3)nc2)cc1 [Compound 348] | 800 to 2500 nM
37 | Cc1ccc(-c2ccc(-c3cnc(-c4ccc(C[C@H](NC(=O)c5ccc(C(C)(C)C)s5)C(=O)O)cc4)nc3)cc2)cc1 [Compound 246] | 800 to 2500 nM
38 | CCCCCCCOc1ccc(-c2cnc(-c3ccc(C[C@H](NC(=O)c4ccc(C(C)(C)C)cc4)C(=O)N[C@@H](CC(N)=O)C(=O)O)cc3)nc2)cc1 [Compound 300] | < 800 nM
39 | CCCCCCCN1CCN(c2cnc(-c3ccc(C[C@H](NC(=O)c4ccc(C(C)(C)C)cc4)C(=O)O)cc3)nc2)CC1 [Compound 254] | 800 to 2500 nM
40 | CCCCCCCOc1ccc(-c2nc(-c3ccc(C[C@H](NC(=O)c4ccc(C(C)(C)C)cc4)C(=O)O)cc3)ns2)cc1 [Compound 84] | 800 to 2500 nM
41 | CCCCCCCOc1ccc(-c2nc(-c3ccc(C[C@H](NC(=O)c4ccc(C(C)(C)C)cc4)C(=O)NS(C)(=O)=O)cc3)no2)cc1 [Compound 69] | 5000 to 10000 nM
42 | CC(C)(C)c1ccc(C(=O)N[C@@H](Cc2ccc(-c3ncc(-c4ccc(Cl)c(Cl)c4)cn3)cc2)C(=O)O)cc1 [Compound 213] | 2500 to 5000 nM
43 | CC(C)(C)c1ccc(-c2ccc(-c3ccc(C[C@H](NC(=O)c4ccc(C(C)(C)C)s4)C(=O)O)cc3)nn2)cc1 [Compound 280] | 2500 to 5000 nM
44 | CCCCCCCOc1ccc(-c2cnc(-c3ccc(C[C@H](NC(=O)c4ccc(CO)cc4)C(=O)O)cc3)nc2)cc1 [Compound 126] | 800 to 2500 nM
